Reference: patent US4226875A, “Novel spiro-oxazolidinediones” (Pfizer Inc., priority 1979, dated 1980)

What was measured:
[1] = tested on: partially purified aldose reductase enzyme obtained from calf lens; experiment: inhibition of aldose reductase enzyme activity (procedure of US 3,821,383 / Hayman et al.); format: biochemical; conditions: compound concentration 10^-4 M
Source text: (§1) The activity of the compounds of the present invention as agents for the control of chronic diabetic complications may be determined by a number of standard biological or pharmacological tests. Suitable tests include (1) measuring their ability to inhibit the enzyme activity of isolated aldose reductase; (2) measuring their ability to reduce or inhibit sorbitol accumulation in the sciatic nerve of acutely streptozotocinized (i.e. diabetic) rats; (3) measuring their ability to reverse already elevated sorbitol levels in the sciatic nerve and lens of chronic streptozotocin-induced diabetic rats; (4) measuring their ability to prevent or inhibit galactitol formation in the lens of acutely galactosemic rats; and (5) measuring their ability to delay cataract formation and reduce the severity of lens opacities in chronic galactosemic rats. Suitable experimental procedures are described in U.S. Pat. No. 3,821,383 and the references cited therein.
(§2) The substrate employed was partially purified aldose reductase enzyme obtained from calf lens. […] Thus, for example, the compounds may be tested for their ability to reduce or inhibit sorbitol accumulation in the sciatic nerve of streptozotocinized (i.e., diabetic) rats by the procedure essentially described in U.S. Pat. No. 3,821,383. The amount of sorbitol accumulation in the sciatic nerves is measured 27 hours after induction of diabetes. […]

[2] = tested on: sorbitol accumulation in the sciatic nerve of streptozotocinized (i.e., diabetic) rats; experiment: sorbitol accumulation in the sciatic nerve of streptozotocinized (diabetic) rats; format: in vivo; conditions: oral; 50 mg/kg body weight; preliminary tests
Source text: as §1, §2

SMILES	percent inhibition of enzyme activity [1] [%]	activity in reducing or inhibiting sorbitol accumulation in the sciatic nerve [2]
O=C1NC(=O)C2(CCCc3ccccc32)O1 (stereo not drawn) [1',2',3',4'-tetrahydro-spiro-[oxazolididine(5,1')naphthalene]-2,4-dione]	75	no significant activity
O=C1NC(=O)C2(CCc3ccccc32)O1 (stereo not drawn) [Spiro-[indane(1,5')oxazolidine]-2',4'-dione]	81	
